Here are results for 13 compounds from US8461176B2, “Enantiomerically enriched aryloazol-2-yl cyanoethylamino compounds, method of making and method of using thereof” (Merial Limited, priority 2008, dated 2013).

The experiment deals with Haemonchus contortus. Description: Method A: screening of activity against Haemonchus contortus L1 larvae in microtitre plate (development to L3 / motility). Conditions: Haemonchus contortus, 96 h, 4 days assessment; for inhibition at 0.15 ppm: test concentration 0.15 ppm; for inhibition at 0.01 ppm: test concentration 0.01 ppm; for inhibition at 0.04 ppm: test concentration 0.04 ppm. The text has this:
Method A: Screening Method to Test Activity of Compounds Against Haemonchus contortus.

Take `CC(C#N)(Cn1nc2c(Cl)cc(Cl)c(Cl)c2n1)NC(=O)c1ccc(OC(F)(F)F)cc1` (single isomer, unassigned; (-)) [Compound 1.097, (−)-N-[1-Cyano-1-methyl-2-(4,5,7-trichloro-2H-benzotriazol-2-yl)-ethyl]-4-trifluoromethoxybenzamide]: under “test concentration 0.3 ppm”, the inhibition (in general, the change of the read-out against control, counted positive when it falls) at 0.3 ppm is below 90%.

Compound `CC(C#N)(Cn1nc2cc(Cl)c(Cl)cc2n1)NC(=O)c1ccc(OC(F)(F)F)cc1` (stereo not shown) [Compound 1.010, N-[1-Cyano-2-(5,6-dichloro-2H-benzotriazol-2-yl)-1-methylethyl]-4-trifluoromethoxybenzamide] displayed an inhibition at 0.6 ppm (test concentration 0.6 ppm) of at least 90%.

Compound `C=Cc1cc(Cl)cc2nn(CC(C)(C#N)NC(=O)c3ccc(OC(F)(F)F)cc3)nc12` (stereo not shown) [Compound 1.075, N-[2-(6-Chloro-4-vinyl-2H-benzotriazol-2-yl)-1-cyano-1-methylethyl]-4-trifluoromethoxybenzamide] had an inhibition at 0.15 ppm of at least 90%.

Regarding `CC(C#N)(Cn1nc2c(Br)cc(Cl)c(Br)c2n1)NC(=O)c1ccc(C#N)cc1` (stereo not shown) [Compound 1.098, N-[2-(5-Chloro-4,7-dibromo-2H-benzotriazol-2-yl)-1-cyano-1-methylethyl]-4-cyanobenzamide], the inhibition at 0.01 ppm is at least 90%.

`CC(C#N)(Cn1nc2c(Br)cc(Cl)c(Br)c2n1)NC(=O)c1ccc(OC(F)(F)C(F)F)cc1` (stereo not shown) [Compound 1.099, N-[2-(5-Chloro-4,7-dibromo-2H-benzotriazol-2-yl)-1-cyano-1-methylethyl]-4-(1,1,2,2-tetrafluoroethoxy)benzamide]: the inhibition at 0.01 ppm is at least 90%.

Compound `CC(C#N)(Cn1nc2c(Cl)cc(Cl)c(Cl)c2n1)NC(=O)c1ccc(I)cc1` (stereo not shown) [Compound 1.100, N-[1-Cyano-1-methyl-2-(4,5,7-trichloro-2H-benzotriazol-2-yl)-ethyl]-4-iodobenzamide] displayed an inhibition at 0.04 ppm of at least 90%.

For the compound `CC(C#N)(Cn1nc2c(Cl)cc(Cl)c(Cl)c2n1)NC(=O)c1ccc(C(F)(F)F)cc1` (stereo not shown) [Compound 1.101, N-[1-Cyano-1-methyl-2-(4,5,7-trichloro-2H-benzotriazol-2-yl)-ethyl]-4-trifluoromethylbenzamide], the inhibition at 0.0025 ppm (test concentration 0.0025 ppm) is at least 90%.

Compound `CC(C#N)(Cn1nc2c(Cl)cc(Cl)c(Cl)c2n1)NC(=O)c1ccc(C#N)cc1` (stereo not shown) [Compound 1.102, N-[1-Cyano-1-methyl-2-(4,5,7-trichloro-2H-benzotriazol-2-yl)-ethyl]-4-cyanobenzamide] displayed an inhibition at 0.04 ppm of at least 90%.

As to `CC(C#N)(Cn1nc2c(Cl)cc(Cl)c(Cl)c2n1)NC(=O)c1ccc(OC(F)(F)C(F)F)cc1` (stereo not shown) [Compound 1.103, N-[1-Cyano-1-methyl-2-(4,5,7-trichloro-2H-benzotriazol-2-yl)-ethyl]-4-(1,1,2,2-tetrafluoroethoxy)benzamide], the inhibition at 0.01 ppm was at least 90%.

`CC(C#N)(Cn1nc2c(Cl)cc(Cl)c(Cl)c2n1)NC(=O)c1ccc(C(F)(F)F)cc1F` (stereo not shown) [Compound 1.143, N-[1-Cyano-1-methyl-2-(4,5,7-trichloro-2H-benzotriazol-2-yl)-ethyl]-2-fluoro-4-trifluoromethylbenzamide] had an inhibition at 0.04 ppm of at least 90%.

In turn, `CC(C#N)(Cn1nc2c(Cl)cc(Cl)c(Cl)c2n1)NC(=O)c1ccc(C(F)(F)F)c(F)c1` (stereo not shown) [Compound 1.146, N-[1-Cyano-1-methyl-2-(4,5,7-trichloro-2H-benzotriazol-2-yl)-ethyl]-3-fluoro-4-trifluoromethylbenzamide] displayed an inhibition at 0.15 ppm of at least 90%.

With `CCOc1c2cc(Cl)ccc2nn1CC(C)(C#N)NC(=O)c1ccc(OC(F)(F)F)cc1` (stereo not shown) [Compound 2.014, N-[2-(5-Chloro-3-ethoxy-2H-indazol-2-yl)-1-cyano-1-methylethyl]-4-trifluoromethoxybenzamide], the inhibition at 0.15 ppm is at least 90%.

In the case of `COc1c2ccccc2nn1CC(C)(C#N)NC(=O)c1ccc(OC(F)(F)F)cc1` (stereo not shown) [Compound 2.016, N-[1-Cyano-2-(3-methoxy-2H-indazol-2-yl)-1-methylethyl]-4-trifluoromethoxybenzamide], the inhibition at 0.15 ppm was at least 90%.
